According to PMC10412597, “Small molecule branched-chain ketoacid dehydrogenase kinase (BDK) inhibitors with opposing effects on BDK protein levels” (Nature Communications, 2023):
Like-named read-outs stand apart in the source and are kept apart here.

How the values were obtained:
Serotonin 5-HT2a = molecular target: T1, Serotonin 5-HT2a (Homo sapiens, UniProt P28223); set-up: Cerep Bioprint off-target panel, functional receptor agonism or antagonism; details: agonist
T1 construct: gene HTR2A
Description: To discover a potent and selective BDK inhibitor, a subset of the Pfizer compound collection was screened. […] Off target activity was assessed in both CEREP and kinase panels (Supplementary Tables 2, 3).

[1] = molecular target: T2, BDK-BCKDHE2 (biotinylated BDK with full length non-lipoylated E2 core subunit) (Homo sapiens, UniProt O14874); experiment: AlphaLISA BDK-E2 protein-protein interaction, signal decrease; assay type: binding
T2 construct: gene BCKDK; E2 with N-terminal FLAG and TEV site, DBT residues 62-482, bacterial expression, non-lipoylated; with Lipoamide acyltransferase component of branched-chain alpha-keto acid dehydrogenase complex, mitochondrial

[2] = molecular target: T3, BDK (branched-chain ketoacid dehydrogenase kinase, BCKDK; hBDK) (Homo sapiens, UniProt O14874); experiment: SPR; assay type: binding
T3 construct: purified recombinant kinase; construct details only in Supplementary Information; human stated for the crystal structures
Source text: SPR on BDK (branched-chain ketoacid dehydrogenase kinase, BCKDK; hBDK)

[3] = molecular target: T3, BDK (branched-chain ketoacid dehydrogenase kinase, BCKDK; hBDK); experiment: FRET assay of BDK phosphorylation of E2 RBD-E1 peptide substrate; assay type: biochemical; details: read-out: BDK in vitro IC50 (nM)^a
Source text: FRET assay of BDK phosphorylation of E2 RBD-E1 peptide substrate on BDK (branched-chain ketoacid dehydrogenase kinase, BCKDK; hBDK)

[4] = molecular target: T2, BDK-BCKDHE2 (biotinylated BDK with full length non-lipoylated E2 core subunit); experiment: AlphaLISA BDK-E2 protein-protein interaction, signal increase; assay type: binding
[5] = molecular target: T4, BDK in human skeletal myocytes (Homo sapiens, UniProt O14874); experiment: AlphaLISA SureFire Ultra BCKDH phosphorylation in human skeletal myocytes; assay type: cell-based; details: intact cells; read-out: Human skeletal myocyte IC50 (nM)^a
T4 construct: gene BCKDK; endogenous full kinase in human skeletal myocytes; read-out BCKDH E1alpha phosphorylation
Source text: AlphaLISA SureFire Ultra BCKDH phosphorylation in human skeletal myocytes on BDK in human skeletal myocytes

[6] = molecular target: T3, BDK (branched-chain ketoacid dehydrogenase kinase, BCKDK; hBDK); experiment: biochemical; set-up: SPR binding to captured BDK, 1:1 binding model; details: read-out: BDK SPR KD
Description: 828 Tween-20 and 2% DMSO. The same buffer was used as the running buffer during the 829 experiments. Compound samples were injected at a flow rate of 30 µL/min for 120 seconds of 830 association time followed by at least 300 seconds of dissociation period. The compounds were 831 tested in a concentration series consisting of at least 6 samples made with 2-fold dilution. The 832 highest concentration was selected based on compound potency in the biochemical assay or 833 binding affinity observed in a previous experiment. Multiple blank injections were run before and 834 after each compound series to allow double reference subtraction during data processing and 835 analysis. Radicicol was tested in every experiment as a positive control to assess activity of the 836 captured protein on the surface. A DMSO curve was run during each experiment to properly 837 correct for excluded volume. The data were processed and analyzed using Bruker Analyzer, 838 Scrubber and Biaeval softwares to calculate binding affinities and kinetics by fitting the data to 839 1:1 binding model. To discover a potent and selective BDK inhibitor, a subset of the Pfizer compound collection was screened. […] Off target activity was assessed in both CEREP and kinase panels (Supplementary Tables 2, 3).

[7] = molecular target: T3, BDK (branched-chain ketoacid dehydrogenase kinase, BCKDK; hBDK); experiment: biochemical; set-up: TR-FRET BDK kinase assay, phosphorylation of LBD-E1 substrate, 15 uM ATP; details: read-out: BDK in vitro IC50
Description: 705 covered with a lid and allowed to incubate at room temperature for 90 min. Final concentration of 706 LBD-E1 substrate was 50 nM and final concentration of ATP was 15 µM. Following incubation, 707 the enzyme reactions were stopped by adding 5 µL of 4X stop/primary antibody solution 708 containing 100 mM (final) EDTA, 2 nM (final) anti-His Eu antibody, and 1:1000 anti-pE1 antibody 709 in assay buffer. The plates were covered and incubated at room temperature for 30 min. Finally, 710 5 µL of 4X detection reagent consisting of 20 nM (final) anti-rabbit Ulight antibody and 1X LANCE 711 detection buffer in dH2O was then added. The plates were centrifuged for 30 seconds at 113 x g. 712 After a 60 min incubation, the plates were read on an EnVision® MultiReader in TR-FRET mode 713 (excitation 320 nm: emissions 665 nm). The raw data from the EnVision® MultiReader was 714 expressed as a ratio and was analyzed using proprietary software (Activity Base). […] IC50 values were determined from the percent effect data using a 4-parameter logistic dose 718 response model (Activity Base). To discover a potent and selective BDK inhibitor, a subset of the Pfizer compound collection was screened. […] Off target activity was assessed in both CEREP and kinase panels (Supplementary Tables 2, 3).

T1 sequence (P28223 whole entry): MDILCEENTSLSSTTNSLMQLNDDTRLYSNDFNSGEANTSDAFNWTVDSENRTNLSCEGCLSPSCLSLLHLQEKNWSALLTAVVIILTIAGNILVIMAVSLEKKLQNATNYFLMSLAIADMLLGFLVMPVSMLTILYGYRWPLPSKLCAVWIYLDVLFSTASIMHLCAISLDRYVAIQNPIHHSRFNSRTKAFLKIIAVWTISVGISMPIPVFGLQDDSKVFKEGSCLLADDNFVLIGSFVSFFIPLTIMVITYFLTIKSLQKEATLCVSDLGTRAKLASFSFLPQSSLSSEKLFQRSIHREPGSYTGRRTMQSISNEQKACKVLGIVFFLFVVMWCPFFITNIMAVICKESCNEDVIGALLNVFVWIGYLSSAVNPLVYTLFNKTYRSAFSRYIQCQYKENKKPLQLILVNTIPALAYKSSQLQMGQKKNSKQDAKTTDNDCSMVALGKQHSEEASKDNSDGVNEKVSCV

Row | Structure (SMILES) | Kd [2] [nM] | IC50 [3] [nM] | Kd [6] [nM] | IC50 [7] [nM] | other results
1 | O=C(O)c1sc2cc(F)sc2c1Cl [PF-07208254] | 84 ± 8.7 | – | – | – | % (agonism) PF-07208254 (Serotonin 5-HT2a; 100 µM): -5%; IC50 [1]: 56 ± 26 nM
2 | CC(C)COc1ccc(-c2nc(-c3ccccc3C(=O)O)cs2)cn1 [PF-07238025] | 4.4 ± 1.1 | 4.5 ± 0.58 | – | – | EC50 ([4]; stabilises BDK-E2 interaction, pH […] KCl, […] MgCl2, […] DTT): 19 ± 1.7 nM; IC50 [5]: 59 ± 10 nM
3 | CCC1(COc2ccc(-c3csc(-c4ccccc4C(=O)O)n3)cn2)CC1 [PF-07247685] | 0.68 ± 0.38 | 0.86 ± 0.15 | – | – | EC50 [4]: 2.2 ± 0.35 nM; % (agonism) PF-07247685 (Serotonin 5-HT2a; 10 µM): 3%
4 | O=C(O)c1sc2cc(Cl)sc2c1Cl [S1] | – | – | 75 ± 2 | 600 ± 51 | –
5 | O=C(O)c1cc2sc(F)cc2s1 [S2] | – | – | 270 ± 31 | 210 ± 10 | –
6 | Cc1ccc(-c2nc(-c3ccccc3C(=O)O)cs2)cc1 [S3] | – | – | 5800 ± 4400 | 1200 ± 490 | –
